Experiment [1] relates to A2780 ovarian carcinoma cells. In words: Determination of antiproliferative activity on A2780 cells (MTT). Type of experiment: cell-based. The settings on record: Homo sapiens, 96 h, four days of incubation, read-out: Cellular activity pIC50 (converted). The method, then: Cellular activity of the compounds of formula (I) was determined on A2780 tumour cells using a colorimetric assay for cell toxicity or survival (Mosmann Tim, Journal of Immunological Methods 65:55-63, 1983)(see example C.2).
All compounds tested were dissolved in DMSO and further dilutions were made in culture medium. Final DMSO concentrations never exceeded 0.1% (v/v) in cell proliferation assays. Controls contained A2780 cells and DMSO without compound and blanks contained DMSO but no cells. MTT was dissolved at 5 mg/ml in PBS. A glycine buffer comprised of 0.1 M glycine and 0.1 M NaCl buffered to pH 10.5 with NaOH (1 N) was prepared (all reagents were from Merck).
The human A2780 ovarian carcinoma cells (a kind gift from Dr. T. C. Hamilton [Fox Chase Cancer Centre, Pennsylvania, USA]) were cultured in RPMI 1640 medium supplemented with 2 mM L-glutamine, 50 μg/ml gentamicin and 10% fetal calf serum. Cells were routinely kept as monolayer cultures at 37° C. in a humidified 5% CO2 atmosphere. Cells were passaged once a week using a trypsin/EDTA solution at a split ratio of 1:40. All media and supplements were obtained from Life Technologies. Cells were free of mycoplasma contamination as determined using the Gen-Probe Mycoplasma Tissue Culture kit (supplier: BioMerieux).
Cells were seeded in NUNC™ 96-well culture plates (Supplier: Life Technologies) and allowed to adhere to the plastic overnight. Densities used for plating were 1500 cells per well in a total volume of 200 μl medium. After cell adhesion to the plates, medium was changed and drugs and/or solvents were added to a final volume of 200 μl. Following four days of incubation, medium was replaced by 200 μl fresh medium and cell density and viability was assessed using an MTT-based assay. To each well, 25 μl MTT solution was added and the cells were further incubated for 2 hours at 37° C. The medium was then carefully aspirated and the blue MTT-formazan product was solubilized by addition of 25 μl glycine buffer followed by 100 μl of DMSO. […] Within an experiment, the results for each experimental condition are the mean of 3 replicate wells. For initial screening purposes, compounds were tested at a single fixed concentration of 10^−6 M. For active compounds, the experiments were repeated to establish full concentration-response curves. For each experiment, controls (containing no drug) and a blank incubation (containing no cells or drugs) were run in parallel. The blank value was subtracted from all control and sample values. For each sample, the mean value for cell growth (in absorbance units) was expressed as a percentage of the mean value for cell growth of the control. […] Herein the effects of test compounds are expressed as pIC50 (the negative log value of the IC50-value)(see Table F-3).

Experiment [2] deals with p21 promoter. The experiment can be described thus: p21 induction capacity, cellular method (ZsGreen reporter in A2780 clones). The settings on record: A2780 clones with p21 1300 bp promoter-ZsGreen reporter, 24 hours treatment, percentage of control. Type of experiment: cell-based, human. The procedure: A first method tests the capacity of compounds to induce p21 as the consequence of HDAC inhibition at the cellular level. […] The reporter gene is a fluorescent protein and the expression of the reporter gene is measured as the amount of fluorescent light emitted (see example C.6.a.). The second method is an in vivo method wherein mice are used for screening the pharmaceutical activity of a compound. The above described stably transformed tumour cells can be administered to mice in an amount sufficient to effect production of a tumour. After the tumour cells had sufficient time to form a tumour, a potentially active compound can be administered to the animals and the effect of said compound On the tumour cells is evaluated by measuring the expression of the reporter gene. […]
The A2780 selected clones were expanded and seeded at 10000 cells per well into 96-well plates. […] The p21 promoter activation leading to ZsGreen production and thus fluorescence, was monitored by the Ascent Fluoroskan (Thermo Labsystems, Brussels, Belgium).
For each experiment, controls (containing no drug) and a blank incubation (containing no cells or drugs) were run in parallel. […] For each sample, the value for p21 induction was expressed as the percentage of the value for p21 present in the control. […]

Each structure is given as a SMILES string.

On to `O=C(NO)c1cnc(N2CCC(CNC(/C=C/c3ccccc3)CO)CC2)nc1` (centres unmarked) [Compound 1], for which, in experiment [1], the IC50 is 25.1 nM. Further, the p21 induction result in experiment [2] is “significant induction (Percentage induction higher than 130% was defined as significant induction)”.

(Values after US8377935B2, “Substituted aminopropenyl piperidine or morpholine derivatives as novel inhibitors of histone deacetylase” (Janssen Pharmaceutica N.V., priority 2005, dated 2013).)
